Usually IC50 stands for the concentration that inhibits the measured activity by half.

For 31 compounds, IC50 results are on record in patent US8410117B2, “Imidazopyrimidine derivatives” (Hoffmann-La Roche Inc., priority 2010, dated 2013).

SMILES strings stand for the structures.

T1 sequence (Q9Y233 1-779 isoform Q9Y233-1): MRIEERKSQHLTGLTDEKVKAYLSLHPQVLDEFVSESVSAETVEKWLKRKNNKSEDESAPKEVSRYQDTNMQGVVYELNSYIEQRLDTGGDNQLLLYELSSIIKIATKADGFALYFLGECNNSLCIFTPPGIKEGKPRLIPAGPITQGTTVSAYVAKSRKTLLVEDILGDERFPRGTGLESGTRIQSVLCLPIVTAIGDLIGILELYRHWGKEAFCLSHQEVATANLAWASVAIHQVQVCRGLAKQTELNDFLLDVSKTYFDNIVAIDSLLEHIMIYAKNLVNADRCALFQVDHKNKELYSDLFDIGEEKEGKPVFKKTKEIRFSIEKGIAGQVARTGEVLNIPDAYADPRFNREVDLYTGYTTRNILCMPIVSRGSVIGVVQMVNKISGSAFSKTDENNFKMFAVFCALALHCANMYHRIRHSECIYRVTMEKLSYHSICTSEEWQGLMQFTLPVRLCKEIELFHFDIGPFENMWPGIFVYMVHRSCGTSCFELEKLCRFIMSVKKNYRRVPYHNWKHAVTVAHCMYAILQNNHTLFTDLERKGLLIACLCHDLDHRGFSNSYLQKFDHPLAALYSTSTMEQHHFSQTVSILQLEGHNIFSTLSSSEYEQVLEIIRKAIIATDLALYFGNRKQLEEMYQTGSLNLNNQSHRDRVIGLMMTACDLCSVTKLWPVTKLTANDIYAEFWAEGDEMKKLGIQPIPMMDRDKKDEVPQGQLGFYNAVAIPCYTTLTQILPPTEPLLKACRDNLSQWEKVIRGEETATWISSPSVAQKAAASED

The test has as its target T1, human PDE10A (Homo sapiens, UniProt Q9Y233).
T1 construct: The human PDE10A full length assay; purchased Enzo Life Science, Lausen, Switzerland SE-534
The experiment in a line: human PDE10A full length Scintillation Proximity Assay (SPA). The format is biochemical. Conditions: 50 nM cGMP and 50 nM [3H]-cGMP, 20 minutes at room temperature; read-out: PDE10A inhibition IC50. Put shortly:
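Full-length enzyme at 3.75 ng/well in 20 mM HEPES pH 7.5, 10 mM MgCl2, 0.05 mg/ml BSA, with 50 nM cGMP plus 50 nM [3H]-cGMP substrate, 20 min at room temperature. Stopped with YSi-SPA beads in zinc sulphate and counted by scintillation. IC50 from inhibitor concentration series; no-enzyme wells define background.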
Background: SPA uses beads or plates that emit light when radiolabelled molecules are held near them.
`Cn1ncc(-c2ccno2)c1C(=O)Nc1ccn2cc(-c3ccccc3)nc2n1` [Example 20, 4-Isoxazol-5-yl-2-methyl-2H-pyrazole-3-carboxylic acid (2-phenyl-imidazo[1,2-a]pyrimidin-7-yl)-amide]: the IC50 turned out to be 643 nM.

For the compound `Cn1ncc(C(=O)NCC#N)c1C(=O)Nc1ccn2cc(-c3ccccc3)nc2n1` [Example 125, N4-(cyanomethyl)-1-methyl-N5-(2-phenylimidazo[1,2-a]pyrimidin-7-yl)-1H-pyrazole-4,5-dicarboxamide], the IC50 amounted to 18.7 nM.

Turning to `CCCNC(=O)c1[nH]nnc1C(=O)Nc1ccn2cc(-c3ccccc3)nc2n1` [Example 156, N4-(2-phenylimidazo[1,2-a]pyrimidin-7-yl)-N5-propyl-1H-1,2,3-triazole-4,5-dicarboxamide], the IC50 was 359 nM.

As to `Cn1ncc(C(=O)N2CC(F)C2)c1C(=O)Nc1ccn2cc(-c3ccccc3)nc2n1` [Example 115, 4-(3-fluoroazetidine-1-carbonyl)-1-methyl-N-(2-phenylimidazo[1,2-a]pyrimidin-7-yl)-1H-pyrazole-5-carboxamide], the half-inhibitory concentration (IC50) is 5.1 nM.

With `CCN(C)C(=O)c1[nH]nnc1C(=O)Nc1ccn2cc(-c3ccccc3)nc2n1` [Example 28, 1H-[1,2,3]Triazole-4,5-dicarboxylic acid 5-(ethyl-methyl-amide) 4-[(2-phenyl-imidazo[1,2-a]pyrimidin-7-yl)-amide]], the IC50 came out at 251 nM.

In the case of `CCN(C)C(=O)c1cnn(C)c1C(=O)Nc1ccn2cc(-c3cccc(OCF)c3)nc2n1` [Example 86, N-4-Ethyl-N5-(2-(3-(fluoromethoxy)phenyl)imidazo[1,2-a]pyrimidin-7-yl)-N4,1-dimethyl-1H-pyrazole-4,5-dicarboxamide], the IC50 worked out at 5.2 nM.

With `Cn1ncc(C(=O)NC2CC2)c1C(=O)Nc1ccn2cc(-c3ccccc3)nc2n1` [Example 51, 2-Methyl-2H-pyrazole-3,4-dicarboxylic acid 4-cyclopropylamide 3-[(2-phenyl-imidazo[1,2-a]pyrimidin-7-yl)-amide]], the IC50 is 14.8 nM.

Turning to `Cn1ncc(C(=O)N2CC(F)C2)c1C(=O)Nc1ccn2cc(-c3cccc(F)c3)nc2n1` [Example 92, 4-(3-Fluoro-azetidine-1-carbonyl)-2-methyl-2H-pyrazole-3-carboxylic acid [2-(3-fluoro-phenyl)-imidazo[1,2-a]pyrimidin-7-yl]-amide], the IC50 turned out to be 6.5 nM.

Take `Cc1nc(CNC(=O)c2cnn(C)c2C(=O)Nc2ccn3cc(-c4ccccc4)nc3n2)no1` [Example 168, 1-methyl-N-4-((5-methyl-1,2,4-oxadiazol-3-yl)methyl)-N5-(2-phenylimidazo[1,2-a]pyrimidin-7-yl)-1H-pyrazole-4,5-dicarboxamide]: the IC50 stood at 865 nM.

As for `Cc1oc(C2CC2)nc1CNC(=O)c1cnn(C)c1C(=O)Nc1ccn2cc(-c3ccccc3)nc2n1` [Example 165, N4-((2-cyclopropyl-5-methyloxazol-4-yl)methyl)-1-methyl-N5-(2-phenylimidazo[1,2-a]pyrimidin-7-yl)-1H-pyrazole-4,5-dicarboxamide], the IC50 was determined as 776 nM.

Turning to `Cn1ncc(C(=O)NCC(C)(C)O)c1C(=O)Nc1ccn2cc(-c3ccccc3)nc2n1` [Example 72, 2-Methyl-2H-pyrazole-3,4-dicarboxylic acid 4-[(2-hydroxy-2-methyl-propyl)-amide]3-[(2-phenyl-imidazo[1,2-a]pyrimidin-7-yl)-amide]], the IC50 stood at 463 nM.

Regarding `Cn1ncc(C(=O)N2CCC2)c1C(=O)Nc1ccn2cc(-c3cccc(-c4ccccc4)c3)nc2n1` [Example 128, 4-(azetidine-1-carbonyl)-N-(2-(biphenyl-3-yl)imidazo[1,2-a]pyrimidin-7-yl)-1-methyl-1H-pyrazole-5-carboxamide], the IC50 was 26 nM.

For `Cn1ncc(C(=O)N2CC(F)(F)C2)c1C(=O)Nc1ccn2cc(-c3ccccc3)nc2n1` [Example 34, 4-(3,3-Difluoro-azetidine-1-carbonyl)-2-methyl-2H-pyrazole-3-carboxylic acid (2-phenyl-imidazo[1,2-a]pyrimidin-7-yl)-amide], the IC50 was 35 nM.

Consider `Cn1ncc(C(=O)N2CCC2)c1C(=O)Nc1ccn2cc(-c3cccc(Br)c3)nc2n1` [Example 117, 4-(azetidine-1-carbonyl)-N-(2-(3-bromophenyl)imidazo[1,2-a]pyrimidin-7-yl)-1-methyl-1H-pyrazole-5-carboxamide], for which the half-inhibitory concentration (IC50) is 6.2 nM.

Regarding `Cc1cc(Br)cnc1C(=O)Nc1ccn2cc(-c3ccccc3)nc2n1` [Example 23, 5-Bromo-3-methyl-pyridine-2-carboxylic acid (2-phenyl-imidazo[1,2-a]pyrimidin-7-yl)-amide], the IC50 was determined as 64.3 nM.

On to `Cn1ncc(C(=O)N2CCC2)c1C(=O)Nc1ccn2cc(-c3cccc(OC(F)(F)F)c3)nc2n1` [Example 61, 4-(Azetidine-1-carbonyl)-2-methyl-2H-pyrazole-3-carboxylic acid [2-(3-trifluoromethoxy-phenyl)-imidazo[1,2-a]pyrimidin-7-yl]-amide], for which the half-inhibitory concentration (IC50) is 23.5 nM.

Take `CCN(C)C(=O)c1nn(C)cc1C(=O)Nc1ccn2cc(-c3ccccc3)nc2n1` [Example 67, 1-Methyl-1H-pyrazole-3,4-dicarboxylic acid 3-(ethyl-methyl-amide) 4-[(2-phenyl-imidazo[1,2-a]pyrimidin-7-yl)-amide]]: the IC50 was determined as 25.7 nM.

`CNC(=O)c1cnn(C)c1C(=O)Nc1ccn2cc(-c3cccc(Cl)c3)nc2n1` [Example 32, 2-Methyl-2H-pyrazole-3,4-dicarboxylic acid 3-{[2-(3-chloro-phenyl)-imidazo[1,2-a]pyrimidin-7-yl]-amide}4-methylamide]: the IC50 was found to be 22.8 nM.

Regarding `CC(=O)Oc1cccc(-c2cn3ccc(NC(=O)c4c(C(=O)N(C)C)cnn4C)nc3n2)c1` [Example 93, 3-(7-(4-(dimethylcarbamoyl)-1-methyl-1H-pyrazole-5-carboxamido)imidazo[1,2-a]pyrimidin-2-yl)phenyl acetate], the half-inhibitory concentration (IC50) came to 8.3 nM.

For the compound `Cn1ncc(C(=O)NCc2ccc(Cl)nc2)c1C(=O)Nc1ccn2cc(-c3ccccc3)nc2n1` [Example 154, N4-((6-chloropyridin-3-yl)methyl)-1-methyl-N5-(2-phenylimidazo[1,2-a]pyrimidin-7-yl)-1H-pyrazole-4,5-dicarboxamide], the IC50 is 315 nM.

With `Cc1cc(CNC(=O)c2cnn(C)c2C(=O)Nc2ccn3cc(-c4ccccc4)nc3n2)on1` [Example 127, 1-methyl-N4-((3-methylisoxazol-5-yl)methyl)-N5-(2-phenylimidazo[1,2-a]pyrimidin-7-yl)-1H-pyrazole-4,5-dicarboxamide], the IC50 turned out to be 25.9 nM.

As to `CCn1ncc(Cl)c1C(=O)Nc1ccn2cc(-c3ccccc3)nc2n1` [Example 7, 4-Chloro-2-ethyl-2H-pyrazole-3-carboxylic acid (2-phenyl-imidazo[1,2-a]pyrimidin-7-yl)-amide], the IC50 amounted to 140 nM.

As to `COCCNC(=O)c1cnn(C)c1C(=O)Nc1ccn2cc(-c3ccccc3)nc2n1` [Example 46, 2-Methyl-2H-pyrazole-3,4-dicarboxylic acid 4-[(2-methoxy-ethyl)-amide]3-[(2-phenyl-imidazo[1,2-a]pyrimidin-7-yl)-amide]], the IC50 was determined as 785 nM.

For the compound `CCCCn1ncc(Cl)c1C(=O)Nc1ccn2cc(-c3ccccc3)nc2n1` [Example 9, 2-Butyl-4-chloro-2H-pyrazole-3-carboxylic acid (2-phenyl-imidazo[1,2-a]pyrimidin-7-yl)-amide], the IC50 was found to be 44.6 nM.

Regarding `Cn1ncc(C(=O)N2CCC2)c1C(=O)Nc1ccn2cc(-c3cccc(OCCF)c3)nc2n1` [Example 103, 4-(Azetidine-1-carbonyl)-2-methyl-2H-pyrazole-3-carboxylic acid {2-[3-(2-fluoro-ethoxy)-phenyl]imidazo[1,2-a]pyrimidin-7-yl}-amide], the IC50 was 28.7 nM.

For `Cn1ncc(C(=O)NCc2cc(C3CC3)[nH]n2)c1C(=O)Nc1ccn2cc(-c3ccccc3)nc2n1` [Example 152, N4-((5-cyclopropyl-1H-pyrazol-3-yl)methyl)-1-methyl-N5-(2-phenylimidazo[1,2-a]pyrimidin-7-yl)-1H-pyrazole-4,5-dicarboxamide], the IC50 worked out at 302 nM.

`CC(C)n1nc([N+](=O)[O-])cc1C(=O)Nc1ccn2cc(-c3ccccc3)nc2n1` [Example 16, 2-Isopropyl-5-nitro-2H-pyrazole-3-carboxylic acid (2-phenyl-imidazo[1,2-a]pyrimidin-7-yl)-amide]: the IC50 turned out to be 82.1 nM.

As for `Cc1nn(C)c(C(=O)Nc2ccn3cc(-c4ccccc4)nc3n2)c1Br` [Example 5, 4-Bromo-2,5-dimethyl-2H-pyrazole-3-carboxylic acid (2-phenyl-imidazo[1,2-a]pyrimidin-7-yl)-amide], the IC50 stood at 26.8 nM.

With `COc1cccc(-c2cn3ccc(NC(=O)c4c(C(=O)N5CC(F)C5)cnn4C)nc3n2)c1` [Example 98, 4-(3-Fluoro-azetidine-1-carbonyl)-2-methyl-2H-pyrazole-3-carboxylic acid [2-(3-methoxy-phenyl)-imidazo[1,2-a]pyrimidin-7-yl]-amide], the IC50 stood at 14.7 nM.

As for `CC(C)n1ncc(Cl)c1C(=O)Nc1ccn2cc(-c3ccccc3)nc2n1` [Example 10, 4-Chloro-2-isopropyl-2H-pyrazole-3-carboxylic acid (2-phenyl-imidazo[1,2-a]pyrimidin-7-yl)-amide], the IC50 was 105 nM.

On to `Cn1ncc(C(=O)N2CCC2)c1C(=O)Nc1ccn2cc(-c3cccc(F)c3)nc2n1` [Example 91, 4-(Azetidine-1-carbonyl)-2-methyl-2H-pyrazole-3-carboxylic acid [2-(3-fluoro-phenyl)-imidazo[1,2-a]pyrimidin-7-yl]-amide], for which the 50% inhibitory concentration (IC50) stood at 6.1 nM.
